Assay results taken from patent US20090209605A1, “NEMATICIDAL COMPOSITIONS” (Devgen N.V., priority 2004, published 2009).

Legend:
Assay type in all cases: in vivo
Meloidogyne incognita = assay: Root infestation on agar plate: root knot count on potato microplant roots; conditions: 60 μM in agar, galls counted 5 weeks after inoculation, four replicates
Description: 9 cm petri dishes were filled with a 15 ml agar. One stem cutting of a potato microplant (Solanum tuberosum cv. Desirée) was placed on top of the agar layer. After 2 to 3 weeks of incubation at 20° C., the root system was sufficiently developed to be inoculated.
The test compounds (see Table 1) were added 2 days before inoculation by way of spreading a 2 ml DMSO-solution with the compound over the agar and allowing the compound to diffuse in the agar during two days at constant temperature of 20° C. During incubation, the plates are protected from light in a dark incubator. The resulting concentration of each compound in each agar plate was 60 μM.
After incubation, approximately 400 axenic juveniles of Meloidogyne incognita species were added to the plate.
The plates were incubated in the dark at a constant temperature of 20° C. and 5 weeks after inoculation the number of galls formed on the roots were determined by counting. Also any toxic effect of the test compounds on the roots was recorded. 8 weeks after inoculation the plates were stored at low temperature.
Each compound was tested in four replicates. Positive controls were treated with different concentrations of Aldicarb, a known nematicide. Negative controls included 5 replicates of double negative controls (no compound, no nematode), 5 replicates of single negative controls (no compound, with nematode) and 5 replicates of DMSO controls (DMSO solution, with nematode).

Heterodera nematode = assay: Pot Assay 3: Heterodera infection of sugar beet, crop vigor and crop height; conditions: infested soil
Source text: The soil used in this assay originated from a Heterodera nematode infested sugar plot of which the infestation was confirmed by means of several soil analyses. Each pot was filled up with a soil mixture composed as follows: a) the infested soil was constituted by silt loam soil (about 600 g/pot) mixed with sterile peat (about 600 g/pot) and sterile cork (about 200 g/pot); b) the sterile soil was instead constituted only by sterile peat (1200 g/pot) and sterile cork (200 g/pot).
(§1) Each compound or compound mixture as described herein was tested in 4 different rates with 4 replicates per rate. One pot per replicate was used in which 18 beava sugar beet seeds (variety GEA (KWS)) were sown. After crop germination, the number of plants was reduced to 10 plants. The 4 rates added to the soil of the tested compounds or compound mixtures were 0.05 mg, 0.20 mg, 1 mg and 5 mg. These amounts translate to field application rates respectively as 30, 120, 600 and 3000 g per hectare.
Efficacy of the compounds described herein as nematicide was measured by visual inspection of the crop vigor and the crop height. The crop vigor evaluation is based on a 0-100 scale, where 0 is “no vigor” and 100 is “maximum vigor”. The crop height development is based on a measurement, in cm, per plant, excluding the root system.
Positive control plants were treated with Oxamyl (Vydate 5 G, 5% gr) at a rate of 40 kg fp per ha. Negative controls involved single negative controls (no compound, with nematode infested soil; referenced as “Untreated 1”) and double negative controls (no compound, sterile soil; referenced as “Untreated 2”).

[1] = test system: sugar beet (variety GEA (KWS)); assay: Pot Assay 3: phytotoxicity, number of sugar beet plants emerged
Description: as §1
Phytotoxicity assessments were carried by assessing any possible effects of the chemicals on the crop, such as chlorosis, yellowing, stunting, in comparison to the untreated control without nematodes.

[2] = test system: Meloidogyne incognita nematodes; assay: Pot Assay 1: Meloidogyne infection of potato, egg masses/galls on roots; conditions: potato in pot, week 8 after inoculation
Description: 500 ml clay pots were filled with 400 ml of silver sand. One tuber of potato ( Solanum tuberosum cv. Bintje) was planted in the sand. After 2 to 3 weeks incubation, the potato plant was sufficiently developed to be inoculated.
Plants were grown under the usual standard greenhouse conditions at 14° C.-18° C., with 16 hours light and 8 hours dark and 80-90% relative humidity. The pots were watered using individual drippers and fertilizers were added under the form of macro- and micro nutrients according to plant growth requirements. When needed, the plants were sprayed with fungicides and insecticides.
The compounds as described herein were added one day before inoculation. The compounds were dissolved in a 20 ml DMSO-solution and spread over the sand surface. The final concentration is calculated under the assumption that the compound is diffused entirely in the pot. This process occurred during two days at the normal greenhouse conditions described above.
After compound incubation, approximately 1500 juveniles of Meloidogyne incognita nematodes were added to the pots.
The pots were incubated at the described greenhouse conditions until nematode development was completed. At week 8 after inoculation the number of galls formed on the roots was counted after washing off the sandy substrate. Also the effect of the compound on the plant development was recorded.
Every compound was tested in three replicates. Positive control plants were treated with different concentrations of aldicarb, a known nematicide. Negative controls involved 12 replicates of double negative controls (no compound, no nematode), 12 replicates of single negative controls (no compound, no DMSO, with nematode), 24 replicates of DMSO controls (DMSO solution, with nematode).
As assessment of the root development was taken into account.

tomato (cv. Rio Grande) = assay: Pot Assay 2: root development (vigor of roots) of tomato; conditions: visual value 0 to 10 (10 equal to control)
Description: Phytotoxicity of compounds as described herein when used as a nematicide, was measured as follows. […] At that moment, plant emergence was assessed for the plants treated with any of the compounds as described herein, by counting the number of plants per compound-concentration.
Vigor of roots was also assessed once the plants are well established so as not to loose plants. To assess vigor of the plants or roots, a visual value ranging from 0 to 10 (0 no vigor, 10 equal to control) was scored per compound-concentration.

Meloidogyne nematodes = assay: Pot Assay 2: Meloidogyne infection of tomato, % infestation of roots; conditions: tomato in infested soil
Description: The soil used in this assay originated from a plot, heavily infested with Meloidogyne nematodes. Part of this soil was sterilized by autoclaving and was used as negative control. Sandy soil, which was not infested with nematodes, was pursued from a commercial source.
Plastic seedling trays with wells of 60 ml capacity were filled with about 40 ml of soil per well. 5 ml of water per well was used for irrigation.
Compounds as described herein were tested in 4 different rates and with 12 replicates for each concentration. The compounds as described herein were stored as dry films of 4 different concentrations. The day of the application of the compounds, all the dry films were dissolved in 60 ml water and poured into the 12 replicate wells: 5 ml per well. Every tray of 12 wells was identified with a label, indicating compound and concentration used. The 4 final rates in the soil of the tested compound were approximately 0.05 mg, 0.20 mg, 1 mg and 5 mg. These amounts translate to field application rates respectively as 30, 120, 600 and 3000 g per hectare.
3-5 days after application of the tested compound, tomato seeds (cv. Rio Grande) were sown in the wells by hand, at about 2 cm deep. A light cover of vermiculite on the surface was used to avoid dehydration. Plants were irrigated by micro-nebulization 3-4 times per week at a rate of 3 L/m^2, weeded by hand and treated with fertilizers, fungicide and insecticides when needed.
Their resistance against nematode infection was monitored and the efficacy of compounds described herein as a nematicide was measured. Furthermore the phytotoxicity of the test compounds was evaluated.
Efficacy of the compounds described herein as nematicide was measured by giving the roots a percentage of infestation measured as follows. Plants were grown to reach good development of the roots, which corresponds to plants grown to about 10 cm high at about one month after emergence. After removal of the soil from the roots by rinsing with water, the roots were visually inspected and root galls were counted on 4 plants of the set of 12 replicate plants.
Positive control plants were treated with a 10 micromolar concentration of oxamyl (Vydate, 10% SL; the rate of 10 micromolar corresponds to a commercial rate of 20 l/ha), a known nematicide. Negative controls involved double negative controls (no compound, sterile soil), and single negative controls (no compound, with nematode infested soil).

[3] = test system: root-knot nematode (Meloidogyne spp); assay: Nematicide field trial on tomato: root galling and yield; conditions: for Average root galling: 0-5 Lamberti scale
Description: (§2) Open field tomatoes (Lycopersicon esculentum, variety incas) were grown on sandy soil with a natural root-knot nematode (Meloidogyne spp) population. Soil samples, collected prior to planting, contained on average 113 J2 juveniles per 100 g soil. A program of 5 applications with intervals of about 14 days was started two days after transplantation.
(§3) An experimental pattern at Complete Randomized Blocks with four replicas was adopted. Besides the experimental products, each test also included an untreated control and a treatment with the standard commercial product VYDATE 10L (10%) applied in accordance to label instructions.
The read-outs are the average yield of the marketable tomatoes per plant (Table 7). The level of nematode attack of the root system at the time of harvesting was assessed by means of the lamberti scoring.

[4] = test system: root-knot nematode (Meloidogyne spp); assay: Nematicide field trial on cucumber: root galling and yield; conditions: for Average root galling: 0-5 Lamberti scale
Description: as §2, with “ground grown cucumber (Cucumis sativus cv Carine)” for “field tomatoes (Lycopersicon esculentum, variety incas)”, “8” for “113”, “4” for “5”, “six” for “two”
as §3
[…] The level of nematode attack of the root system at the time of harvesting was assessed by means of the lamberti scoring.

[5] = Product Rate 1 (footnote g ai/ha)
[6] = Product Rate 2 (footnote g ai/ha)
[7] = Product Rate 4 (footnote g ai/ha)
[8] = Product Rate 8 (footnote g ai/ha)

In the case of `COC(=O)c1sccc1S(=O)(=O)NC(=O)Nc1nc(C)nc(OC)n1` [XL], the “Root knot count, average of the replicate counts” value (shortened to “Root knot count, average”) (Meloidogyne incognita) was 0, the “crop height (cm)” value (Heterodera nematode; Rate 0.05 mg) was 12 cm and the “crop vigor (max 100%)” value (Heterodera nematode; Rate 0.05 mg) was 90%.

`c1coc(-c2nc3ccccc3[nH]2)c1` [XVI] was tested, and the “Root knot count, average” value (Meloidogyne incognita) was 14.5, the “# crops emerged (max 18)” value ([1]; Rate 0.05 mg) was 18 and the “crop height (cm)” value (Heterodera nematode; Rate 0.05 mg) was 13 cm. For the same compound, the “crop vigor (max 100%)” value (Heterodera nematode; Rate 0.05 mg) was 90%, the “number of egg masses (galls) on roots, Replicate 2” value (“number of egg masses … Replicate 2” below) ([2]; 10 μM) was 50 and the “number of egg masses … Replicate 2” value ([2]; 50 μM) was 40. For the same compound, the “number of egg masses (galls) on roots, Replicate 3” value (“number of egg masses … Replicate 3” below) ([2]; 50 μM) was 15.

For `CCN(Cc1ccc(Cl)nc1)/C(=C/[N+](=O)[O-])NC` [XXIX], the “ROOT DEV.” value (tomato (cv. Rio Grande); RATE 0.05 mg) was 7.9, the “ROOT DEV.” value (tomato (cv. Rio Grande); RATE 0.2 mg) was 7.7 and the “ROOT DEV.” value (tomato (cv. Rio Grande); RATE 1 mg) was 7.5. For the same compound, the “ROOT DEV.” value (tomato (cv. Rio Grande); RATE 5 mg) was 6.6, the “Root knot count, average” value (Meloidogyne incognita) was 17.5 and the “number of egg masses (galls) on roots, Replicate 1” value (from here on “number of egg masses … Replicate 1”) ([2]; 50 μM) was 50. The “number of egg masses … Replicate 2” value ([2]; 50 μM) was 40, the “number of egg masses … Replicate 3” value ([2]; 50 μM) was 40 and the “% INF. (% Infestation)” value (Meloidogyne nematodes; RATE 0.05 mg) was 3.8%. The “% INF. (% Infestation)” value (Meloidogyne nematodes; RATE 0.2 mg) was 1.3%, the “% INF. (% Infestation)” value (Meloidogyne nematodes; RATE 1 mg) was 2.5% and the “% INF. (% Infestation)” value (Meloidogyne nematodes; RATE 5 mg) was 5.0%.

In the case of `CC(C)NC(=O)N1CC(=O)N(c2cc(Cl)cc(Cl)c2)C1=O` [XXV], the “Root knot count, average” value (Meloidogyne incognita) was 17, the “Average yield of marketable fruits” value [3, 5] was 1.45 kg/plant/pot and the Average root galling [3, 5] was 1.8. For the same compound, the “Average yield of marketable fruits” value [3, 6] was 1.33 kg/plant/pot, the Average root galling [3, 6] was 1.3 and the “number of egg masses … Replicate 1” value ([2]; 10 μM) was 50. For the same compound, the “number of egg masses … Replicate 2” value ([2]; 10 μM) was 50, the “number of egg masses … Replicate 1” value ([2]; 50 μM) was 30 and the “number of egg masses … Replicate 2” value ([2]; 50 μM) was 25. For the same compound, the “number of egg masses … Replicate 3” value ([2]; 50 μM) was 20, the “Average yield of marketable fruits” value ([4]; Product Rate 500 g ai/ha) was 6.7 kg/plant/pot and the Average root galling ([4]; Product Rate 500 g ai/ha) was 2.75. For the same compound, the “Average yield of marketable fruits” value ([4]; Product Rate 1500 g ai/ha) was 9.1 kg/plant/pot and the Average root galling ([4]; Product Rate 1500 g ai/ha) was 1.75.

`CC(C)[C@@H](Nc1ccc(C(F)(F)F)cc1Cl)C(=O)OC(C#N)c1cccc(Oc2ccccc2)c1` (stereo partly drawn) [XXXVI] was tested, and the “Root knot count, average” value (Meloidogyne incognita) was 0, the “# crops emerged (max 18)” value ([1]; Rate 0.05 mg) was 18 and the “# crops emerged (max 18)” value ([1]; Rate 0.2 mg) was 18. For the same compound, the “# crops emerged (max 18)” value ([1]; Rate 1 mg) was 18, the “# crops emerged (max 18)” value ([1]; Rate 5 mg) was 18 and the “crop height (cm)” value (Heterodera nematode; Rate 0.05 mg) was 9 cm. The “crop vigor (max 100%)” value (Heterodera nematode; Rate 0.05 mg) was 70%, the “crop height (cm)” value (Heterodera nematode; Rate 0.2 mg) was 14 cm and the “crop vigor (max 100%)” value (Heterodera nematode; Rate 0.2 mg) was 100%. The “crop height (cm)” value (Heterodera nematode; Rate 1 mg) was 15 cm, the “crop vigor (max 100%)” value (Heterodera nematode; Rate 1 mg) was 100% and the “crop height (cm)” value (Heterodera nematode; Rate 5 mg) was 13 cm. For the same compound, the “crop vigor (max 100%)” value (Heterodera nematode; Rate 5 mg) was 90%, the “Average yield of marketable fruits” value [3, 7] was 1.43 kg/plant/pot and the Average root galling [3, 7] was 1.8. For the same compound, the “Average yield of marketable fruits” value [3, 8] was 1.26 kg/plant/pot, the Average root galling [3, 8] was 1.8 and the “Average yield of marketable fruits” value ([4]; Product Rate 250 g ai/ha) was 9.3 kg/plant/pot. For the same compound, the Average root galling ([4]; Product Rate 250 g ai/ha) was 1.88, the “Average yield of marketable fruits” value ([4]; Product Rate 500 g ai/ha) was 9.6 kg/plant/pot and the Average root galling ([4]; Product Rate 500 g ai/ha) was 1.63.
